Data taken from US7332495B2 (priority 2002, dated 2008).

How the values were obtained:
Kunming mice [1] = test: Sedation: spontaneous activities recorded with alternating current tube; assay type: in vivo; conditions: i.p. 20 mg/Kg, spontaneous activities; for inhibition in vivo at 20 mg/kg: Mus musculus, ip
Procedure: Kunming mice were used, with a male-female ratio of 50-50%. […] After 30 minutes, acetic acid (0.7%, […] i.p.) was injected and the number of writhes was observed during a 5-minute period after acetic acid administration. The inhibition ratio of the writhing threshold was calculated. The alternating current tube is used to record the spontaneous activities for measuring sedation.

Kunming mice [2] = test: Mice writhing model (acetic acid); assay type: in vivo; conditions: i.p. 20 mg/Kg, acetic acid 0.7% i.p. after 30 minutes, writhes in 5 minutes; for inhibition in vivo at 20 mg/kg: Mus musculus, ip, read-out: Analgesia (inhibition ratio of writhing)
Procedure: Kunming mice were used, with a male-female ratio of 50-50%. The test compound is administered i.p. (20 mg/Kg body weight) to the test groups, and physiological saline is administered P.O. (20 ml/Kg body weight) to the control group. After 30 minutes, acetic acid (0.7%, […] i.p.) was injected and the number of writhes was observed during a 5-minute period after acetic acid administration. The inhibition ratio of the writhing threshold was calculated. The alternating current tube is used to record the spontaneous activities for measuring sedation.
Two species of animals (mice and rats) and four types of pain testing models (i.p. 0.7% acetic acid, s.c. 5% formalin, hot plate 55° C., focused radiant heat) were used.

SMILES | inhibition in vivo at 20 mg/kg (Kunming mice [1]) [%] | inhibition in vivo at 20 mg/kg (Kunming mice [2]) [%] | Sedation (Kunming mice [1]) [%] | Analgesia (inhibition ratio of writhing) (Kunming mice [2]) [%]
O=C(CCN1CCN(Cc2ccccc2)CC1)c1ccccc1 [IV-17, N^1-benzyl-N^4-(2-benzoylethyl)piperazine] | 75 | 45 | – | –
C[C@H](c1ccccc1)N1CCN(CC(=O)c2ccccc2)CC1 [IV-38, N^1—(R-1-phenylethyl)-N^4-phenacyl piperazine] | 99 | 51 | – | –
O=C(CN1CCN(Cc2cccc3ccccc23)CC1)c1ccccc1 [IV-58, N^1-(1-naphthalenylmethyl)-N^4-phenacyl piperazine] | – | – | 32 | 49
Nc1ccc(C(=O)CN2CCN(Cc3ccccc3)CC2)cc1 [IV-16, N^1-benzyl-N^4-(4-aminophenacyl)piperazine] | 51 | 63 | – | –
CC(=O)Nc1ccc(C(=O)CN2CCN(Cc3ccc([N+](=O)[O-])cc3)CC2)cc1 [IV-18, N^1-(4-nitrobenzyl)-N^4-[(4-acetamido)phenacyl]piperazine] | 65 | 64 | – | –
O=C(CN1CCN(Cc2cccnc2)CC1)c1ccccc1 [IV-11, N^1-(3-pyridylmethyl)-N^4-phenacyl piperazine] | 91 | 86 | – | –
C[C@@H](c1ccccc1)N1CCN(CC(=O)c2ccccc2)CC1 [IV-39, N^1-(S-1-phenylethyl)-N^4-phenacyl piperazine] | – | – | 35 | 42
CC(C(=O)c1ccccc1)N1CCN(Cc2ccc([N+](=O)[O-])cc2)CC1 (stereo not drawn) [IV-47, N^1-(4-nitrobenzyl)-N^4-(1-benzoylethyl)piperazine] | 26.4 | 28.8 | – | –
O=C(CN1CCN(Cc2ccc(F)cc2)CC1)c1ccc(Cl)cc1 [IV-20, N^1-(4-fluorobenzyl)-N^4-(4-chlorophenacyl)piperazine] | 60 | 45 | – | –
CC(=O)Nc1ccc(C(=O)CN2CCN(Cc3ccccc3)CC2)cc1 [IV-55, N^1-benzyl-N^4-(4-acetamidophenacyl)piperazine] | 52 | 21 | – | –
O=C(CN1CCN(Cc2ccccc2)CC1)c1ccc([N+](=O)[O-])cc1 [IV-9, N^1-benzyl-N^4-(4-nitrophenacyl)piperazine] | 32 | 74 | – | –
COc1ccc(CN2CCN(C(C)C(=O)c3ccc4c(Cl)c(OC)ccc4c3)CC2)cc1 (stereo not drawn) [IV-31, N^1-(4-methoxybenzyl)-N^4-[1-(5-chloro-6-methoxy-2-naphthoyl)ethyl]piperazine] | 7 | 45 | – | –
COc1ccc([N+](=O)[O-])cc1CN1CCN(CC(=O)c2ccccc2)CC1 [IV-23, N^1-(2-methoxy-5-nitrobenzyl)-N^4-phenacyl piperazine] | 96 | 87 | – | –
COc1ccc(OC)c(CN2CCN(CC(=O)c3ccccc3)CC2)c1 [IV-15, N^1-(2,5-dimethoxybenzyl)-N^4-phenacyl piperazine] | 93 | 80 | – | –
O=C(CN1CCN(Cc2ccc(Cl)cc2)CC1)c1ccccc1 [IV-3, N^1-(4-chlorobenzyl)-N^4-phenacyl piperazine] | 70.8 | 56.6 | – | –
O=C(CN1CCN(Cc2ccccc2)CC1)c1ccccc1 [IV-1, N^1-benzyl-N^4-phenacyl piperazine] | 65.6 | 68.2 | – | –
CC(c1ccc(F)cc1)N1CCN(CC(=O)c2ccccc2)CC1 (stereo not drawn) [IV-24, N^1-[1-(4-fluorophenyl)ethyl]-N^4-phenacyl piperazine] | 47 | 64 | – | –
Cc1ccc(C(=O)CN2CCN([C@H](C)c3ccccc3)CC2)cc1 [IV-41, N^1—(R-1-phenylethyl)-N^4-(4-methylphenacyl)piperazine] | 72 | 60 | – | –
